# Measurements taken from patent US10987357B2, “Aerosolized fluoroquinolones and uses thereof” (Horizon Orphan, LLC, priority 2005, dated 2021).
# Test system: not listed separately
# Experiment: Dissolution rate studies
# Details: 2-10 minutes; 500 ml pH 7.4 Tris buffer, 37° C., paddles 100 rpm
row,SMILES,dissolution rate
1,CCCCCCCCCCCCCCCCCC(=O)O.C[C@H]1COc2c(N3CCN(C)CC3)c(F)cc3c(=O)c(C(=O)O)cn1c23 [levofloxacin stearate],0.499 mg/min
2,C[C@H]1COc2c(N3CCN(C)CC3)c(F)cc3c(=O)c(C(=O)O)cn1c23.O=C(O)c1ccc2ccccc2c1O [levofloxacin xinafoate],approximately 1.24 mg/min

# Same assay, conditions: 10-30 minutes; pH 7.4 Tris buffer, 37° C.
row,SMILES,dissolution rate [mg/min]
1,CCCCCCCCCCCCCCCCCC(=O)O.C[C@H]1COc2c(N3CCN(C)CC3)c(F)cc3c(=O)c(C(=O)O)cn1c23 [levofloxacin stearate],0.161
2,C[C@H]1COc2c(N3CCN(C)CC3)c(F)cc3c(=O)c(C(=O)O)cn1c23.O=C(O)c1ccc2ccccc2c1O [levofloxacin xinafoate],0.28

# Test system: P. aeruginosa strain PAM 1723
# Experiment: Mouse lung infection efficacy model
# Details: Pseudomonas aeruginosa, PAM1723, in Mus musculus, 1 h, read-out: DeltaLOG CPU 1 hr, route IT, dose 25 mg/kg, 1 hr post-drug administration
# Experimental: The inoculum is adjusted to ca. 5×10^6 CFU/ml by correlation of absorbance at 600 nm with predetermined plate counts. […] On day 5, mice are infected by an intratracheal instillation of 0.05 ml of inoculum while under isoflurane anesthesia (5% isoflurane in oxygen running at 4 L/min). […] Mice are sacrificed 1 and 4 hours after treatment, their lungs removed, homogenized and plated to determine colony counts.
row,SMILES,log reduction at 25 mg/kg
1,C[C@@H]1CN(c2c(F)c(N)c3c(=O)c(C(=O)O)cn(C4CC4)c3c2F)C[C@H](C)N1 [Sparfloxacin],1.56
2,NC1CCN(c2nc3c(cc2F)c(=O)c(C(=O)O)cn3-c2ccc(F)cc2F)C1 (centres unmarked) [Tosufloxacin],0.48

# Same assay, conditions: Pseudomonas aeruginosa, PAM1723, in Mus musculus, 4 h, read-out: DeltaLOG CPU 4 hr, route IT, dose 25 mg/kg, 4 hr post-drug administration
row,SMILES,log reduction at 25 mg/kg
1,C[C@@H]1CN(c2c(F)c(N)c3c(=O)c(C(=O)O)cn(C4CC4)c3c2F)C[C@H](C)N1 [Sparfloxacin],0.81
2,NC1CCN(c2nc3c(cc2F)c(=O)c(C(=O)O)cn3-c2ccc(F)cc2F)C1 (centres unmarked) [Tosufloxacin],0.24

# Same assay, conditions: Pseudomonas aeruginosa, PAM1723, in Mus musculus, ip, 1 h, read-out: DeltaLOG CPU 1 hr, route IP, dose 25 mg/kg, 1 hr post-drug administration
row,SMILES,log reduction at 25 mg/kg
1,C[C@@H]1CN(c2c(F)c(N)c3c(=O)c(C(=O)O)cn(C4CC4)c3c2F)C[C@H](C)N1 [Sparfloxacin],0.85
2,NC1CCN(c2nc3c(cc2F)c(=O)c(C(=O)O)cn3-c2ccc(F)cc2F)C1 (centres unmarked) [Tosufloxacin],0

# Same assay, conditions: Pseudomonas aeruginosa, PAM1723, in Mus musculus, ip, 4 h, read-out: DeltaLOG CPU 4 hr, route IP, dose 25 mg/kg, 4 hr post-drug administration
row,SMILES,log reduction at 25 mg/kg
1,C[C@@H]1CN(c2c(F)c(N)c3c(=O)c(C(=O)O)cn(C4CC4)c3c2F)C[C@H](C)N1 [Sparfloxacin],-0.09
2,NC1CCN(c2nc3c(cc2F)c(=O)c(C(=O)O)cn3-c2ccc(F)cc2F)C1 (centres unmarked) [Tosufloxacin],-1.33

# Test system: not listed separately
# Experiment: physchem
# Details: 10 mg/mL in sterile water
# Experimental: A 2 to 20 mg sample of each antibiotic was weighed into sterile plastic tubes and brought up with a volume of sterile water to make a 10 mg/mL solution or suspension of the antibiotic. Samples were incubated for approximately 10 minutes at room temperature with occasional mixing, prior to further handling.
# The insoluble solutions were titrated with 1N HCl to the point of visible solubility, and the pH of the solubilized solution determined.
# After the pH adjustment, and following a further 10 minute incubation period with occasional mixing, the final appearance of the solutions was determined, just prior to the aerosol tolerability and taste test.
row,SMILES,Initial Solution pH
1,C[C@@H]1CN(c2c(F)c(N)c3c(=O)c(C(=O)O)cn(C4CC4)c3c2F)C[C@H](C)N1 [Sparfloxacin],5.0
2,NC1CCN(c2nc3c(cc2F)c(=O)c(C(=O)O)cn3-c2ccc(F)cc2F)C1 (centres unmarked) [Tosufloxacin],3.5

# Same assay, conditions: 10 mg/mL in sterile water, room temperature
row,SMILES,Initial Solution Appearance
1,C[C@@H]1CN(c2c(F)c(N)c3c(=O)c(C(=O)O)cn(C4CC4)c3c2F)C[C@H](C)N1 [Sparfloxacin],"bright yellow, turbid, visible"
2,NC1CCN(c2nc3c(cc2F)c(=O)c(C(=O)O)cn3-c2ccc(F)cc2F)C1 (centres unmarked) [Tosufloxacin],"white, turbid, visible"

# Same assay, conditions: 10 mg/mL, titrated with 1N HCl
SMILES,After pH Adjustment Appearance,After pH Adjustment pH
C[C@@H]1CN(c2c(F)c(N)c3c(=O)c(C(=O)O)cn(C4CC4)c3c2F)C[C@H](C)N1 [Sparfloxacin],"bright yellow, densely",1.5
NC1CCN(c2nc3c(cc2F)c(=O)c(C(=O)O)cn3-c2ccc(F)cc2F)C1 (centres unmarked) [Tosufloxacin],"white, cloudy, less turbid,",1.5

# Same assay, conditions: final solution, 10 mg/mL
row,SMILES,pH of final solution
1,C[C@@H]1CN(c2c(F)c(N)c3c(=O)c(C(=O)O)cn(C4CC4)c3c2F)C[C@H](C)N1 [Sparfloxacin],1.5
2,NC1CCN(c2nc3c(cc2F)c(=O)c(C(=O)O)cn3-c2ccc(F)cc2F)C1 (centres unmarked) [Tosufloxacin],1.5

# Same assay, conditions: pH 1.5
row,SMILES,solubility on titration with 1N HCl
1,C[C@@H]1CN(c2c(F)c(N)c3c(=O)c(C(=O)O)cn(C4CC4)c3c2F)C[C@H](C)N1 [Sparfloxacin],solubility was not reached by pH 1.5
2,NC1CCN(c2nc3c(cc2F)c(=O)c(C(=O)O)cn3-c2ccc(F)cc2F)C1 (centres unmarked) [Tosufloxacin],solubility was not reached by pH 1.5

# Test system: Pseudomonas aeruginosa (Pa)
# Experiment: not given
# Details: Table 6; cited from earlier work
row,SMILES,Pa MIC90 [µg/mL]
1,C[C@@H]1CN(c2c(F)c(N)c3c(=O)c(C(=O)O)cn(C4CC4)c3c2F)C[C@H](C)N1 [Sparfloxacin],32
2,NC1CCN(c2nc3c(cc2F)c(=O)c(C(=O)O)cn3-c2ccc(F)cc2F)C1 (centres unmarked) [Tosufloxacin],16

# Test system: Streptococcus pneumonia (Sp)
# Experiment: not given
# Details: Table 6; cited from earlier work
row,SMILES,SP MIC90 [µg/mL]
1,C[C@@H]1CN(c2c(F)c(N)c3c(=O)c(C(=O)O)cn(C4CC4)c3c2F)C[C@H](C)N1 [Sparfloxacin],0.5
2,NC1CCN(c2nc3c(cc2F)c(=O)c(C(=O)O)cn3-c2ccc(F)cc2F)C1 (centres unmarked) [Tosufloxacin],0.5

# Test system: methicillin resistant Staphylococcus aureus (MRSA)
# Experiment: not given
# Details: Table 6; cited from earlier work
row,SMILES,MRSA MIC90 [µg/mL]
1,C[C@@H]1CN(c2c(F)c(N)c3c(=O)c(C(=O)O)cn(C4CC4)c3c2F)C[C@H](C)N1 [Sparfloxacin],16
2,NC1CCN(c2nc3c(cc2F)c(=O)c(C(=O)O)cn3-c2ccc(F)cc2F)C1 (centres unmarked) [Tosufloxacin],>16

# Test system: MSSA
# Experiment: not given
# Details: Table 6; cited from earlier work
row,SMILES,MSSA MIC90 [µg/mL]
1,C[C@@H]1CN(c2c(F)c(N)c3c(=O)c(C(=O)O)cn(C4CC4)c3c2F)C[C@H](C)N1 [Sparfloxacin],0.125
2,NC1CCN(c2nc3c(cc2F)c(=O)c(C(=O)O)cn3-c2ccc(F)cc2F)C1 (centres unmarked) [Tosufloxacin],0.125
